How the values were obtained:
p-IR/IR = assay: Cell test: western blotting of p-IR/IR in C2C12 mouse myoblasts; type: cell-based; details: for Insulin receptor phosphorylation (p-IR/IR), result in words: C2C12 cells, without induction by insulin, summary of Table 6; for p-IR/IR (change in expression): C2C12 mouse myoblasts, final concentration 20 μL/mL, 24 hours, western blotting
Procedure: (§1) C2C12 mouse myoblasts were obtained and were cultured in groups for 24 hours. After that, the culture medium of each group was added with human insulin (MedChemExpress LLC), polypeptide 1 of the present invention (SEQ ID No.: 1), polypeptide 2 of the invention (SEQ ID No.: 2), polypeptide 3 of the invention (SEQ ID No.: 3), polypeptide 4 of the invention (SEQ ID No.: 4), or polypeptide 5 (whose amino acid sequence number is SEQ ID No.: 5 and which was used for the control group) such that the final concentration of the added insulin/polypeptide in the culture medium was 20 μL/mL. The cells in each group were then cultured for another 24 hours, before the culture medium of each cell group was removed. The cells were subsequently washed with a phosphate-buffered solution, added with a radioimmunoprecipitation assay (RIPA) buffer containing a phosphatase inhibitor, and kept in a refrigerator, allowing reactions to take place for 30 minutes. Following that, the cells were thawed, subjected to vibration extraction with an ultrasonic vibrator for 5 minutes, and centrifuged. The supernatant of each cell group was collected and was analyzed by the western blotting method in order to determine changes in the expression of p-IR/IR, p-Akt, GLUT4, mTOR, PPARα, and p-AMPK in each cell group.

p-Akt = assay: Cell test: western blotting of p-Akt in C2C12 mouse myoblasts; type: cell-based; details: for Expression of phosphorylated Akt, result in words: C2C12 cells, without induction by insulin, summary of Table 6; for p-Akt (change in expression): C2C12 mouse myoblasts, final concentration 20 μL/mL, 24 hours, western blotting
Procedure: as §1

GLUT4 = assay: Cell test: western blotting of GLUT4 in C2C12 mouse myoblasts; type: cell-based; details: for Expression of GLUT4, result in words: C2C12 cells, without induction by insulin, summary of Table 6; for GLUT4 (change in expression): C2C12 mouse myoblasts, final concentration 20 μL/mL, 24 hours, western blotting
Procedure: as §1

PGC-1α = assay: Cell test: western blotting of PGC-1α in C2C12 mouse myoblasts; type: cell-based; details: for Expression of PGC-1α, result in words: C2C12 cells, without induction by insulin, summary of Table 6; for PGC-1α (change in expression): C2C12 mouse myoblasts, final concentration 20 μL/mL, 24 hours, western blotting
Procedure: [The source words this procedure for another target and reports this target under the same test.] as §1

mTOR = assay: Cell test: western blotting of mTOR in C2C12 mouse myoblasts; type: cell-based; details: final concentration 20 μL/mL, 24 hours
Procedure: as §1

PPARα = assay: Cell test: western blotting of PPARα in C2C12 mouse myoblasts; type: cell-based; details: for Expression of PPARα, result in words: C2C12 cells, without induction by insulin, summary of Table 6; for PPARα (change in expression): C2C12 mouse myoblasts, final concentration 20 μL/mL, 24 hours, western blotting
Procedure: as §1

p-AMPK = assay: Cell test: western blotting of p-AMPK in C2C12 mouse myoblasts; type: cell-based; details: final concentration 20 μL/mL, 24 hours
Procedure: as §1

insulin receptor = insulin receptor (mouse, UniProt P15208 28-1372); assay: cell-based or functional assay
Sequence of insulin receptor (P15208 28-1372): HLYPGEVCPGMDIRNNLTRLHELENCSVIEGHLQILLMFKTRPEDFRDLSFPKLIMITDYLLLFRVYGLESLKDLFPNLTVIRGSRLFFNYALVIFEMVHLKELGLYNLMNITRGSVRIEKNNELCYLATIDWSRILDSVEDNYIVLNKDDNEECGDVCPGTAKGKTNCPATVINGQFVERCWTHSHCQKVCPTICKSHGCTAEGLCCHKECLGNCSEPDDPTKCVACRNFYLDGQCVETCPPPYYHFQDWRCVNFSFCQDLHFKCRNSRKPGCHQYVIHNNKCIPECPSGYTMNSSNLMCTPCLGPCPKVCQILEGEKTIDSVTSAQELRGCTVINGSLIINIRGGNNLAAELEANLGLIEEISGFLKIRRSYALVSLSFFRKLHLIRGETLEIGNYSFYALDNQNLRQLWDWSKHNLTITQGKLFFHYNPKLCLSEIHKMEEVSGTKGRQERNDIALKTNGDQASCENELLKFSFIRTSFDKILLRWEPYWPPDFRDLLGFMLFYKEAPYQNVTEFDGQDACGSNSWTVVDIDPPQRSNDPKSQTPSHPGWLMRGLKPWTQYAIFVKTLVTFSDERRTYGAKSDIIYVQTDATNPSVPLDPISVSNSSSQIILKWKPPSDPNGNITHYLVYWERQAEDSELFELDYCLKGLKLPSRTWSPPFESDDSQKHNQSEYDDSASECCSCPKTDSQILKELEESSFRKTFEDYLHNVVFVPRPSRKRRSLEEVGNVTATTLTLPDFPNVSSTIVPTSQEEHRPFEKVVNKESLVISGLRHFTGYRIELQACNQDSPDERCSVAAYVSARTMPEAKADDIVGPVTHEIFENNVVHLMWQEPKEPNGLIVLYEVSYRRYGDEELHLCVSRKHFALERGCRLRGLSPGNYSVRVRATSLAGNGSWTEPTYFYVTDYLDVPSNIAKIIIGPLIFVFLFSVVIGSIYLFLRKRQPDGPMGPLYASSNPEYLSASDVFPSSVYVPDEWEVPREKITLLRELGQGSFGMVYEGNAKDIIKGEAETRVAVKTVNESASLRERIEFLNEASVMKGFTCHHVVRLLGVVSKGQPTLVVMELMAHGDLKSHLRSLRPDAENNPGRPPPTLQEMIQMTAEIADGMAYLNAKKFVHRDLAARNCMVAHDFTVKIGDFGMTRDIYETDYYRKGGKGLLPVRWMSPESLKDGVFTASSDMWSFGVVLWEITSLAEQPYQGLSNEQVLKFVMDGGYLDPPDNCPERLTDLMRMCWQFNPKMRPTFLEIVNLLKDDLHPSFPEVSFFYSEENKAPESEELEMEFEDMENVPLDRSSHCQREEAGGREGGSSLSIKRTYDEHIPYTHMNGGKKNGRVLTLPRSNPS

Molecule	Insulin receptor phosphorylation (p-IR/IR), result in words (p-IR/IR)	Expression of phosphorylated Akt, result in words (p-Akt)	p-Akt (change in expression) (p-Akt)	Expression of GLUT4, result in words (GLUT4)	GLUT4 (change in expression) (GLUT4)	Expression of PGC-1α, result in words (PGC-1α)	PGC-1α (change in expression) (PGC-1α)	mTOR (change in expression) (mTOR)	Expression of PPARα, result in words (PPARα)	PPARα (change in expression) (PPARα)	p-AMPK (change in expression) (p-AMPK)	p-IR/IR (change in expression) (p-IR/IR)	p-IR/IR (insulin receptor)
GGGDATRYSTGGGYS [polypeptide 1]	able to encourage insulin receptor phosphorylation	increase the expression of phosphorylated Akt	+196%	increase the expression of phosphorylated Akt and GLUT4	+376%	enhance the expression of PGC-1α	+161%	+136%	enhance the expression of PGC-1α and PPARα	+173%	+232%	–	–
INPNEQREV [polypeptide 2]	able to encourage insulin receptor phosphorylation	increase the expression of phosphorylated Akt	+29%	increase the expression of phosphorylated Akt and GLUT4	+23%	enhance the expression of PGC-1α	+0%	+22%	enhance the expression of PGC-1α and PPARα	+62%	+70%	–	–
MQIFVK [polypeptide 4]	able to encourage insulin receptor phosphorylation	failure to increase the expression of phosphorylated Akt significantly	−3%	increase the expression of GLUT4	+156%	enhance the expression of PGC-1α	+155%	+74%	enhance the expression of PGC-1α and PPARα	+151%	+91%	–	–
MQIFVKTLTG [polypeptide 3]	able to encourage insulin receptor phosphorylation	increase the expression of phosphorylated Akt	+153%	increase the expression of phosphorylated Akt and GLUT4	+582%	enhance the expression of PGC-1α	+258%	+117%	enhance the expression of PGC-1α and PPARα	+196%	+210%	–	–
VATVIQVL [polypeptide 5, reference compound]	–	failed to increase the expression of phosphorylated Akt	−42%	weaker enhancing effect	+34%	weaker enhancing effect	+3%	+0%	weaker enhancing effect	+23%	+7%	1	–
human insulin (MedChemExpress LLC) (from UniProt P01308 25-54; P01308 90-110) (ligand)	–	–	–	–	–	–	–	–	–	–	–	–	1.23
human insulin [reference compound]	–	–	+56%	–	+41%	–	+50%	−2%	–	+40%	+1%	1.23	–
GGGDATRYSTGGGYS [Polypeptide 1]	–	–	–	–	–	–	–	–	–	–	–	–	1.81
MQIFVKTLTG [Polypeptide 3]	–	–	–	–	–	–	–	–	–	–	–	–	3.08
MQIFVK [Polypeptide 4]	–	–	–	–	–	–	–	–	–	–	–	–	1.97
INPNEQREV [Polypeptide 2]	–	–	–	–	–	–	–	–	–	–	–	–	1
